Data as given in PubChem BioAssay (NCI).
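Results reflect a 48-hour exposure of cells in 96-well plates to compound at five concentrations. Definition used: TGI = concentration required for complete inhibition of growth.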

Experiments:
Assay in all cases: NCI anticancer screen, dose series, 48 h
IGROV1 ovarian = system: IGROV1 ovarian
SNB-75 CNS = system: SNB-75 CNS
U251 CNS = system: U251 CNS
MDA-MB-231 breast = system: MDA-MB-231 breast
UO-31 renal = system: UO-31 renal
HL-60(TB) leukemia = system: HL-60(TB) leukemia
MDA-N = system: MDA-N
UACC-62 melanoma = system: UACC-62 melanoma
A549 NSCLC = system: A549 NSCLC
OVCAR-4 ovarian = system: OVCAR-4 ovarian
HCT-116 colon = system: HCT-116 colon
SR leukemia = system: SR leukemia
TK-10 renal = system: TK-10 renal
HOP-92 NSCLC = system: HOP-92 NSCLC
HCT-15 colon = system: HCT-15 colon
SF-539 CNS = system: SF-539 CNS
NCI-H522 lung = system: NCI-H522 lung
SK-MEL-28 melanoma = system: SK-MEL-28 melanoma
PC-3 prostate = system: PC-3 prostate
NCI/ADR-RES ovarian = system: NCI/ADR-RES ovarian
EKVX NSCLC = system: EKVX NSCLC
786-0 renal = system: 786-0 renal
T-47D breast = system: T-47D breast
SK-MEL-2 melanoma = system: SK-MEL-2 melanoma
OVCAR-3 ovarian = system: OVCAR-3 ovarian
DU-145 prostate = system: DU-145 prostate
SK-MEL-5 melanoma = system: SK-MEL-5 melanoma
SN12C renal = system: SN12C renal
UACC-257 melanoma = system: UACC-257 melanoma
CAKI-1 renal = system: CAKI-1 renal
SF-295 CNS = system: SF-295 CNS
MOLT-4 leukemia = system: MOLT-4 leukemia
SK-OV-3 ovarian = system: SK-OV-3 ovarian
HS 578T breast = system: HS 578T breast
MALME-3M melanoma = system: MALME-3M melanoma
RXF 393 renal = system: RXF 393 renal
SNB-19 CNS = system: SNB-19 CNS
OVCAR-8 ovarian = system: OVCAR-8 ovarian
LOX IMVI melanoma = system: LOX IMVI melanoma
A498 renal = system: A498 renal
CCRF-CEM leukemia = system: CCRF-CEM leukemia
RPMI-8226 leukemia = system: RPMI-8226 leukemia
NCI-H23 lung = system: NCI-H23 lung
NCI-H460 lung = system: NCI-H460 lung
SW-620 colon = system: SW-620 colon
SF-268 CNS = system: SF-268 CNS
M14 melanoma = system: M14 melanoma
MCF7 breast = system: MCF7 breast
K-562 leukemia = system: K-562 leukemia
BT-549 breast = system: BT-549 breast
ACHN renal = system: ACHN renal
COLO 205 colon = system: COLO 205 colon
MDA-MB-435 = system: MDA-MB-435
HCC-2998 colon = system: HCC-2998 colon
NCI-H226 lung = system: NCI-H226 lung
HT29 colon = system: HT29 colon
OVCAR-5 ovarian = system: OVCAR-5 ovarian
HOP-62 NSCLC = system: HOP-62 NSCLC
KM12 colon = system: KM12 colon
XF 498 CNS = system: XF 498 CNS
DMS 273 small cell lung = system: DMS 273 small cell lung
M19-MEL melanoma = system: M19-MEL melanoma
DMS 114 small cell lung = system: DMS 114 small cell lung
KM20L2 colon = system: KM20L2 colon
SNB-78 CNS = system: SNB-78 CNS
LXFL 529 NSCLC = system: LXFL 529 NSCLC
DLD-1 colon = system: DLD-1 colon

CC1(C)C(CBr)=[N+]([O-])C(C)(C)N1O
TGI (IGROV1 ovarian): > 10 µM
TGI (SNB-75 CNS): > 10 µM
TGI (U251 CNS): > 10 µM
TGI (MDA-MB-231 breast): > 10 µM
TGI (UO-31 renal): > 10 µM
TGI (HL-60(TB) leukemia): > 6.81 µM
TGI (MDA-N): > 10 µM
TGI (UACC-62 melanoma): > 10 µM
TGI (A549 NSCLC): > 10 µM
TGI (OVCAR-4 ovarian): 4.23 µM
TGI (HCT-116 colon): 5.27 µM
TGI (SR leukemia): > 10 µM
TGI (TK-10 renal): > 10 µM
TGI (HOP-92 NSCLC): 5.5 µM
TGI (HCT-15 colon): > 8.12 µM
TGI (SF-539 CNS): > 7.83 µM
TGI (NCI-H522 lung): 3.22 µM
TGI (SK-MEL-28 melanoma): > 10 µM
TGI (PC-3 prostate): > 10 µM
TGI (NCI/ADR-RES ovarian): > 10 µM
TGI (EKVX NSCLC): > 8.02 µM
TGI (786-0 renal): 9.78 µM
TGI (T-47D breast): 5.24 µM
TGI (SK-MEL-2 melanoma): > 10 µM
TGI (OVCAR-3 ovarian): > 6.74 µM
TGI (DU-145 prostate): > 10 µM
TGI (SK-MEL-5 melanoma): > 10 µM
TGI (SN12C renal): 9.93 µM
TGI (UACC-257 melanoma): > 10 µM
TGI (CAKI-1 renal): 5.87 µM
TGI (SF-295 CNS): > 10 µM
TGI (MOLT-4 leukemia): > 7.43 µM
TGI (SK-OV-3 ovarian): > 10 µM
TGI (HS 578T breast): > 10 µM
TGI (MALME-3M melanoma): 7.06 µM
TGI (RXF 393 renal): 8.15 µM
TGI (SNB-19 CNS): > 10 µM
TGI (OVCAR-8 ovarian): > 10 µM
TGI (LOX IMVI melanoma): > 10 µM
TGI (A498 renal): > 10 µM
TGI (CCRF-CEM leukemia): 4.49 µM
TGI (RPMI-8226 leukemia): > 8.63 µM
TGI (NCI-H23 lung): > 10 µM
TGI (NCI-H460 lung): > 10 µM
TGI (SW-620 colon): 4.86 µM
TGI (SF-268 CNS): > 10 µM
TGI (M14 melanoma): 5.65 µM
TGI (MCF7 breast): > 10 µM
TGI (K-562 leukemia): > 8.04 µM
TGI (BT-549 breast): 5.43 µM
TGI (ACHN renal): > 8.86 µM
TGI (COLO 205 colon): 3.75 µM
TGI (MDA-MB-435): > 8.08 µM
TGI (HCC-2998 colon): > 10 µM
TGI (NCI-H226 lung): > 10 µM
TGI (HT29 colon): > 10 µM
TGI (OVCAR-5 ovarian): > 10 µM
TGI (HOP-62 NSCLC): > 10 µM
TGI (KM12 colon): > 10 µM

CC(=O)O[C@H]1CC[C@@]2(C)C(=CC[C@H]3C(CC#N)[C@@](C)(C#N)CCC32)C1 (some centres not stated)
TGI (IGROV1 ovarian): > 100 µM
TGI (SNB-75 CNS): > 100 µM
TGI (U251 CNS): > 100 µM
TGI (UO-31 renal): > 100 µM
TGI (HL-60(TB) leukemia): > 100 µM
TGI (XF 498 CNS): > 100 µM
TGI (DMS 273 small cell lung): > 100 µM
TGI (UACC-62 melanoma): > 100 µM
TGI (A549 NSCLC): > 100 µM
TGI (OVCAR-4 ovarian): > 100 µM
TGI (M19-MEL melanoma): > 100 µM
TGI (HCT-116 colon): > 100 µM
TGI (TK-10 renal): > 100 µM
TGI (HOP-92 NSCLC): 88.9 µM
TGI (HCT-15 colon): > 100 µM
TGI (SF-539 CNS): > 100 µM
TGI (SK-MEL-28 melanoma): > 100 µM
TGI (EKVX NSCLC): > 100 µM
TGI (786-0 renal): > 100 µM
TGI (SK-MEL-2 melanoma): > 100 µM
TGI (OVCAR-3 ovarian): > 100 µM
TGI (SK-MEL-5 melanoma): > 100 µM
TGI (SN12C renal): > 100 µM
TGI (UACC-257 melanoma): > 100 µM
TGI (DMS 114 small cell lung): > 100 µM
TGI (SF-295 CNS): > 100 µM
TGI (MOLT-4 leukemia): > 100 µM
TGI (KM20L2 colon): > 100 µM
TGI (SK-OV-3 ovarian): > 100 µM
TGI (MALME-3M melanoma): > 100 µM
TGI (RXF 393 renal): > 100 µM
TGI (SNB-78 CNS): > 100 µM
TGI (SNB-19 CNS): > 100 µM
TGI (OVCAR-8 ovarian): > 100 µM
TGI (LOX IMVI melanoma): > 100 µM
TGI (A498 renal): > 100 µM
TGI (CCRF-CEM leukemia): > 100 µM
TGI (LXFL 529 NSCLC): > 100 µM
TGI (RPMI-8226 leukemia): > 100 µM
TGI (NCI-H23 lung): > 100 µM
TGI (NCI-H460 lung): > 100 µM
TGI (SW-620 colon): > 100 µM
TGI (SF-268 CNS): > 100 µM
TGI (M14 melanoma): > 100 µM
TGI (K-562 leukemia): > 100 µM
TGI (ACHN renal): > 100 µM
TGI (COLO 205 colon): > 100 µM
TGI (HCC-2998 colon): > 100 µM
TGI (NCI-H226 lung): > 100 µM
TGI (DLD-1 colon): > 100 µM
TGI (HT29 colon): > 100 µM
TGI (OVCAR-5 ovarian): > 100 µM
TGI (HOP-62 NSCLC): > 100 µM
TGI (KM12 colon): > 100 µM

Oc1cccc2ccc(SSc3ccc4cccc(O)c4n3)nc12
TGI (IGROV1 ovarian): 60.8 µM
TGI (SNB-75 CNS): 34.9 µM
TGI (U251 CNS): 30 µM
TGI (MDA-MB-231 breast): 32.3 µM
TGI (UO-31 renal): 83.9 µM
TGI (HL-60(TB) leukemia): 56.7 µM
TGI (MDA-N): 38.6 µM
TGI (UACC-62 melanoma): 39.4 µM
TGI (A549 NSCLC): > 100 µM
TGI (OVCAR-4 ovarian): 34.2 µM
TGI (HCT-116 colon): 41.1 µM
TGI (SR leukemia): > 100 µM
TGI (TK-10 renal): 41.3 µM
TGI (HOP-92 NSCLC): 55.9 µM
TGI (HCT-15 colon): 53.3 µM
TGI (SF-539 CNS): 37.5 µM
TGI (NCI-H522 lung): 38.2 µM
TGI (SK-MEL-28 melanoma): 41.3 µM
TGI (PC-3 prostate): 29.9 µM
TGI (NCI/ADR-RES ovarian): 65.6 µM
TGI (EKVX NSCLC): > 100 µM
TGI (786-0 renal): 40.4 µM
TGI (T-47D breast): 38.6 µM
TGI (SK-MEL-2 melanoma): 39.9 µM
TGI (OVCAR-3 ovarian): 34.7 µM
TGI (DU-145 prostate): > 100 µM
TGI (SK-MEL-5 melanoma): > 100 µM
TGI (SN12C renal): 37 µM
TGI (UACC-257 melanoma): 43.2 µM
TGI (CAKI-1 renal): 37.3 µM
TGI (SF-295 CNS): 33.7 µM
TGI (MOLT-4 leukemia): > 100 µM
TGI (SK-OV-3 ovarian): 31.7 µM
TGI (HS 578T breast): > 100 µM
TGI (MALME-3M melanoma): 30 µM
TGI (RXF 393 renal): 30.8 µM
TGI (SNB-19 CNS): > 100 µM
TGI (OVCAR-8 ovarian): 36.3 µM
TGI (LOX IMVI melanoma): 33.8 µM
TGI (A498 renal): 77.4 µM
TGI (CCRF-CEM leukemia): > 100 µM
TGI (RPMI-8226 leukemia): > 100 µM
TGI (NCI-H23 lung): 31.2 µM
TGI (NCI-H460 lung): 42.6 µM
TGI (SW-620 colon): 96.4 µM
TGI (SF-268 CNS): 75.4 µM
TGI (M14 melanoma): 33.3 µM
TGI (MCF7 breast): 18.9 µM
TGI (K-562 leukemia): > 100 µM
TGI (BT-549 breast): 37.6 µM
TGI (ACHN renal): 29.7 µM
TGI (COLO 205 colon): 35.2 µM
TGI (MDA-MB-435): 37.5 µM
TGI (HCC-2998 colon): 21.3 µM
TGI (NCI-H226 lung): > 100 µM
TGI (HT29 colon): 41.5 µM
TGI (OVCAR-5 ovarian): 41.4 µM
TGI (HOP-62 NSCLC): 39.9 µM
TGI (KM12 colon): 29.5 µM
